Format in all cases: functional
The test system of assay [1] is Cryptococcus neoformans. The assay can be described thus: Antifungal activity against Cryptococcus neoformans ATCC 52817 after 72 hrs by broth microdilution method. As to conditions: ATCC 52817, 72 h.
The next assay concerns Candida parapsilosis. The assay can be described thus: Antifungal activity against Candida parapsilosis after 48 hrs by broth microdilution method. Particulars: Lodderomyces parapsilosis. (In general: Dilution methods test growth across graded concentrations, often in twofold steps.)
In assay [2] the test system is Cryptococcus neoformans. The assay can be described thus: Antifungal activity against Cryptococcus neoformans H99 after 72 hrs by broth microdilution method. Particulars: H99, 72 h.
A further assay concerns Pichia kudriavzevii. The assay can be described thus: Antifungal activity against Candida krusei after 48 hrs by broth microdilution method.
The test system of another assay is Candida tropicalis. The assay can be described thus: Antifungal activity against Candida tropicalis after 48 hrs by broth microdilution method.
The test system of the next assay is Candida albicans. The assay can be described thus: Antifungal activity against Candida albicans after 48 hrs by broth microdilution method.
The subject of another assay is Nakaseomyces glabratus. The assay can be described thus: Antifungal activity against Candida glabrata after 48 hrs by broth microdilution method.

The term MIC denotes the least concentration at which growth counts as inhibited. A low value points to inhibition by little substance. Usually MIC90 stands for the lowest concentration that inhibits either 90% of growth or 90% of the strains tested, depending on the study. Low readings indicate higher susceptibility, high ones lower susceptibility.

In brackets after ≈: the same amount, converted by molar mass. Starred links: 1 amine or outer side, 2 acyl side, 3 side chain; linkers in the order of their positions; H or OH if unused. Non-standard residues stand in square brackets, D forms with d. Residues, ends and D or L forms follow the SMILES beside them. X1 = O=C([C@H](CC1=NC=NC1)N[*:1])[*:2]

H-HRRWWRF-OH: the MIC in the assay on Cryptococcus neoformans [1] is 16 µg/mL; in the assay with Candida parapsilosis, 128 µg/mL; with Cryptococcus neoformans [2] it was 8 µg/mL; in the assay on Pichia kudriavzevii it was 128 µg/mL; in the assay with Candida tropicalis, 128 µg/mL; in the assay on Candida albicans, 128 µg/mL. Besides, in the assay on Nakaseomyces glabratus, the lowest concentration to inhibit growth (MIC) was 128 µg/mL. The MIC90 was 256 µg/mL in the assay with Candida parapsilosis; 16 µg/mL in the assay with Cryptococcus neoformans [2]; 256 µg/mL in the assay on Pichia kudriavzevii; 512 µg/mL against Candida tropicalis; 512 µg/mL in the assay on Candida albicans; 512 µg/mL against Nakaseomyces glabratus.

In the case of `N=C(N)NCCC[C@@H]1NC(=O)[C@H](CCCNC(=N)N)NC(=O)[C@H](Cc2c[nH]c3ccccc23)NC(=O)[C@H](Cc2c[nH]c3ccccc23)NC(=O)[C@H](CCCNC(=N)N)NC(=O)[C@H](Cc2ccccc2)NC(=O)[C@H](Cc2c[nH]cn2)NC(=O)CNC(=O)[C@H](Cc2c[nH]cn2)NC1=O` (cyclo(FRWWRRHGH)), the MIC with Cryptococcus neoformans [1] amounted to 4 µg/mL (≈ 3.03 µM); in the assay on Candida parapsilosis it was 32 µg/mL (≈ 24.3 µM); against Cryptococcus neoformans [2], 2 µg/mL (≈ 1.52 µM); against Pichia kudriavzevii, 32 µg/mL (≈ 24.3 µM); against Candida tropicalis it was 32 µg/mL (≈ 24.3 µM); against Candida albicans it was 32 µg/mL (≈ 24.3 µM). In the assay with Nakaseomyces glabratus, this compound yielded an MIC of 64 µg/mL (≈ 48.5 µM). For the same compound, the MIC90 with Candida parapsilosis amounted to 128 µg/mL (≈ 97 µM); with Cryptococcus neoformans [2] it was 4 µg/mL (≈ 3.03 µM); in the assay on Pichia kudriavzevii it was 64 µg/mL (≈ 48.5 µM); in the assay on Candida tropicalis, 128 µg/mL (≈ 97 µM); against Candida albicans, 128 µg/mL (≈ 97 µM); with Nakaseomyces glabratus it was 256 µg/mL (≈ 194 µM).

In the case of `OC(Cn1cncn1)(Cn1cncn1)c1ccc(F)cc1F` [FLUCONAZOLE], the MIC stood at 1 µg/mL (≈ 3.27 µM) in the assay with Candida parapsilosis; 2 µg/mL (≈ 6.53 µM) in the assay on Cryptococcus neoformans [2]; 16 µg/mL (≈ 52.2 µM) against Pichia kudriavzevii; 0.5 µg/mL (≈ 1.63 µM) in the assay with Candida tropicalis; 0.125 µg/mL (≈ 0.408 µM) with Candida albicans; 4 µg/mL (≈ 13.1 µM) in the assay on Nakaseomyces glabratus. Besides, the MIC90 with Candida parapsilosis is 2 µg/mL (≈ 6.53 µM); with Cryptococcus neoformans [2] it was 4 µg/mL (≈ 13.1 µM); against Pichia kudriavzevii, 64 µg/mL (≈ 209 µM); with Candida tropicalis, 2 µg/mL (≈ 6.53 µM); with Candida albicans, 0.25 µg/mL (≈ 0.816 µM); against Nakaseomyces glabratus, 64 µg/mL (≈ 209 µM).

With `N=C(N)NCCC[C@@H]1NC(=O)[C@H](CCCNC(=N)N)NC(=O)[C@H](Cc2c[nH]c3ccccc23)NC(=O)[C@H](Cc2c[nH]c3ccccc23)NC(=O)[C@H](CCCNC(=N)N)NC(=O)[C@H](Cc2ccccc2)NC(=O)[C@H](Cc2c[nH]cn2)NC1=O` (cyclo(FRWWRRH)), the MIC in the assay on Cryptococcus neoformans [1] is 8 µg/mL (≈ 7.11 µM); against Candida parapsilosis it was 64 µg/mL (≈ 56.9 µM); with Cryptococcus neoformans [2], 4 µg/mL (≈ 3.55 µM); against Pichia kudriavzevii, 32 µg/mL (≈ 28.4 µM); with Candida tropicalis, 64 µg/mL (≈ 56.9 µM); in the assay on Candida albicans, 64 µg/mL (≈ 56.9 µM). In addition, the lowest concentration to inhibit growth in the assay with Nakaseomyces glabratus (MIC) was 64 µg/mL (≈ 56.9 µM). Further, the MIC90 against Candida parapsilosis was found to be 128 µg/mL (≈ 114 µM); with Cryptococcus neoformans [2] it was 8 µg/mL (≈ 7.11 µM); with Pichia kudriavzevii, 64 µg/mL (≈ 56.9 µM); in the assay with Candida tropicalis, 256 µg/mL (≈ 227 µM); with Candida albicans, 256 µg/mL (≈ 227 µM); in the assay with Nakaseomyces glabratus, 256 µg/mL (≈ 227 µM).

Consider `N=C(N)NCCC[C@@H]1NC(=O)[C@H](CCCNC(=N)N)NC(=O)[C@H](Cc2ccccc2)NC(=O)[C@H](CCCNC(=N)N)NC(=O)[C@H](Cc2c[nH]c3ccccc23)NC(=O)[C@H](Cc2c[nH]c3ccccc23)NC1=O` (cyclo(RRWWRF)), for which the MIC was 8 µg/mL (≈ 8.1 µM) in the assay with Cryptococcus neoformans [1]; 32 µg/mL (≈ 32.4 µM) with Candida parapsilosis; 4 µg/mL (≈ 4.05 µM) with Cryptococcus neoformans [2]; 32 µg/mL (≈ 32.4 µM) in the assay on Pichia kudriavzevii; 128 µg/mL (≈ 130 µM) in the assay with Candida tropicalis; 128 µg/mL (≈ 130 µM) with Candida albicans. Moreover, in the assay on Nakaseomyces glabratus, it took 128 µg/mL (≈ 130 µM) to inhibit growth (MIC). Also, the MIC90 was 128 µg/mL (≈ 130 µM) against Candida parapsilosis; 64 µg/mL (≈ 64.8 µM) in the assay on Cryptococcus neoformans [2]; 512 µg/mL (≈ 518 µM) against Pichia kudriavzevii; 512 µg/mL (≈ 518 µM) against Candida tropicalis; 512 µg/mL (≈ 518 µM) with Candida albicans; 512 µg/mL (≈ 518 µM) against Nakaseomyces glabratus.

For the compound H-RRWWRF-OH, the MIC in the assay with Cryptococcus neoformans [1] was found to be 16 µg/mL; in the assay on Candida parapsilosis, 64 µg/mL; with Cryptococcus neoformans [2], 16 µg/mL; with Pichia kudriavzevii, 128 µg/mL; against Candida tropicalis it was 128 µg/mL; in the assay with Candida albicans it was 128 µg/mL. The same compound showed an MIC with Nakaseomyces glabratus of 128 µg/mL. Also, the MIC90 in the assay on Candida parapsilosis was 128 µg/mL; against Cryptococcus neoformans [2], 64 µg/mL; in the assay on Pichia kudriavzevii, 512 µg/mL; in the assay on Candida tropicalis it was 512 µg/mL; in the assay on Candida albicans it was 512 µg/mL; against Nakaseomyces glabratus, 512 µg/mL.

Turning to `N=C(N)NCCC[C@H](NC(=O)[C@H](Cc1c[nH]c2ccccc12)NC(=O)[C@H](Cc1c[nH]c2ccccc12)NC(=O)[C@H](CCCNC(=N)N)NC(=O)[C@H](CCCNC(=N)N)NC(=O)[C@H](CC1=NC=NC1)NC(=O)CNC(=O)[C@@H](N)Cc1c[nH]cn1)C(=O)N[C@@H](Cc1ccccc1)C(=O)O` (H-HG[X1]RRWWRF-OH), the MIC against Cryptococcus neoformans [1] is 8 µg/mL (≈ 5.98 µM); against Candida parapsilosis it was more than 512 µg/mL; in the assay on Cryptococcus neoformans [2] it was 8 µg/mL (≈ 5.98 µM); with Pichia kudriavzevii, 256 µg/mL (≈ 191 µM); against Candida tropicalis it was 256 µg/mL (≈ 191 µM); against Candida albicans, 256 µg/mL (≈ 191 µM). The compound also had an MIC in the assay on Nakaseomyces glabratus of 256 µg/mL (≈ 191 µM). The MIC90 is 512 µg/mL (≈ 383 µM) with Candida parapsilosis; 16 µg/mL (≈ 12 µM) in the assay with Cryptococcus neoformans [2]; 512 µg/mL (≈ 383 µM) in the assay on Pichia kudriavzevii; more than 512 µg/mL against Candida tropicalis; more than 512 µg/mL with Candida albicans; more than 512 µg/mL in the assay on Nakaseomyces glabratus.

Consider `C[C@@H]1[C@H](O)[C@@H](C)/C=C/C=C/C=C/C=C/C=C/C=C/C=C/[C@H](O[C@@H]2O[C@H](C)[C@@H](O)[C@H](N)[C@@H]2O)C[C@@H]2O[C@](O)(C[C@@H](O)C[C@@H](O)[C@H](O)CC[C@@H](O)C[C@@H](O)CC(=O)O[C@H]1C)C[C@H](O)[C@H]2C(=O)O` [AMPHOTERICIN B], for which the MIC against Candida parapsilosis was determined as 0.06 µg/mL (≈ 0.0649 µM); against Cryptococcus neoformans [2], 0.125 µg/mL (≈ 0.135 µM); against Pichia kudriavzevii, 0.03 µg/mL (≈ 0.0325 µM); in the assay on Candida tropicalis it was 0.03 µg/mL (≈ 0.0325 µM); against Candida albicans, 0.03 µg/mL (≈ 0.0325 µM); against Nakaseomyces glabratus, 0.03 µg/mL (≈ 0.0325 µM). The MIC90 with Candida parapsilosis is 0.06 µg/mL (≈ 0.0649 µM); in the assay with Cryptococcus neoformans [2], 0.25 µg/mL (≈ 0.271 µM); against Pichia kudriavzevii, 0.06 µg/mL (≈ 0.0649 µM); in the assay with Candida tropicalis, 0.06 µg/mL (≈ 0.0649 µM); against Candida albicans, 0.125 µg/mL (≈ 0.135 µM); in the assay on Nakaseomyces glabratus, 0.125 µg/mL (≈ 0.135 µM).

The values above are taken from ChEMBL document CHEMBL1275362, “Synthesis of new antifungal peptides selective against Cryptococcus neoformans” (2010).
